Experimental findings from ChEMBL document CHEMBL1201862, “PubChem BioAssay data set” (2004) are described below.

The nature of assay [1]: Luminescence Cell-Based Dose Response HTS to Identify Activators of Luciferase Translation or Activity in H4 […] Cells. [Related pubchem assays: 1829 (Project Summary), 1814 (Primary HTS)]. It is filed as functional.
Another assay relates to H4. As to the kind of experiment: Luminescence Cell-Based Dose Response HTS to Identify Activators of 5'UTR Stem-Loop Driven Prion Protein mRNA Translation in H4 Neuroglioblastoma Cells. [Related pubchem assays: 1829 (Project Summary), 1814 (Primary HTS)]. The note with it: Homo sapiens. The class given is functional.
The target of the next assay is T1, Streptokinase A (Streptococcus pyogenes serotype M1, UniProt P10520).
T1 sequence (P10520 whole entry): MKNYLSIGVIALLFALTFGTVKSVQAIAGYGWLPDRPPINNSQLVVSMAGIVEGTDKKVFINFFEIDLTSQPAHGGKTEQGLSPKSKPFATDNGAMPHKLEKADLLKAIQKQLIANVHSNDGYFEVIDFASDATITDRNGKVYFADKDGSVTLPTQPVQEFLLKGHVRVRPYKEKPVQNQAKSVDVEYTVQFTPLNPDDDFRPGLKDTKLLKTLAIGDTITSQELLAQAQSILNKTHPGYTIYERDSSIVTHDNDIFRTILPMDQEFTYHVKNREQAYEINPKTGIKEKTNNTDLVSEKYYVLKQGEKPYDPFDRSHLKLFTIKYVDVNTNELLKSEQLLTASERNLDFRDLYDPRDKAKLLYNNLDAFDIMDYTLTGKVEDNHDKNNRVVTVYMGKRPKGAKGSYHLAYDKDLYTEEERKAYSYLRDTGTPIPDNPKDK
The assay is described as follows: viability-normalized secreted streptokinase activity reduction – plasminogen activation absorbance, OD405, dose response (AID 1914).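 Note: secreted streptokinase activity via plasminogen activation per viability signal from cell pellet.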 It is filed as functional, Streptococcus pyogenes M1 GAS.

Assay [2] deals with Streptococcus sp. 'group A'. As to the kind of experiment: Streptococcus pyogenes SK(-)GAS viability under kanamycin – luminescence, BacTiterGlo, confirmation, counter-screen for streptokinase expression inhibitor project, dose response (AID 1900). It is filed as functional, organism-based.
In the next assay the test system is Streptococcus. The assay is described as follows: GAS UMAA2166 growth inhibition – luminescence, BacTiterGlo, counter-screen for streptokinase expression inhibitor project, dose response (AID 1915).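 Note: potency for reduction of bacterial viability or growth.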 The class given is functional, organism-based.
The target of assay [3] is T2, Rac GTPase-activating protein 1 (Homo sapiens, UniProt Q9H0H5).
T2 sequence (Q9H0H5 whole entry): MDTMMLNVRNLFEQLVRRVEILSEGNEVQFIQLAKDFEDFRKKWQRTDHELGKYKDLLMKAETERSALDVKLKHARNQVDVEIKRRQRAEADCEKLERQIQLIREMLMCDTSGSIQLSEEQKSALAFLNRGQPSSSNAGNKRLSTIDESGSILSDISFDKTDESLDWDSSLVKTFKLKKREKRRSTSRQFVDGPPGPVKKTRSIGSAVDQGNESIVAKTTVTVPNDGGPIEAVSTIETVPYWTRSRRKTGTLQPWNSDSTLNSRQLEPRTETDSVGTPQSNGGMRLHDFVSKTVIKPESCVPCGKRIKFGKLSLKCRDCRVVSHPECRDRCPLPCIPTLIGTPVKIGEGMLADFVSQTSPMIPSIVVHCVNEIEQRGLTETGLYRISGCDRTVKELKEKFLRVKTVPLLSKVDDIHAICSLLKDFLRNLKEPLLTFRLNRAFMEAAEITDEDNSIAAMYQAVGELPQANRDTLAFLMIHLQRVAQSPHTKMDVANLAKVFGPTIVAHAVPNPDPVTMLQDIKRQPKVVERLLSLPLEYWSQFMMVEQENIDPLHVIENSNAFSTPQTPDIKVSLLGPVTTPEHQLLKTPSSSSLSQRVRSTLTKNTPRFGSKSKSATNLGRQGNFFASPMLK
As to the kind of experiment: blockers of MgcRacGAP-driven Rac1 GTP hydrolysis – biochemical, ADP Hunter fluorescence, primary and confirmatory, confirmation (AID 624330). The class given is functional.

The next assay concerns the target Cytochrome P450 2C9 (Homo sapiens, UniProt P11712).
Assay [4] has as its target T3, Corticotropin-releasing factor receptor 2/Corticotropin-releasing factor-binding protein (Homo sapiens, UniProt P24387+Q13324).
T3 sequence (Q13324 whole entry): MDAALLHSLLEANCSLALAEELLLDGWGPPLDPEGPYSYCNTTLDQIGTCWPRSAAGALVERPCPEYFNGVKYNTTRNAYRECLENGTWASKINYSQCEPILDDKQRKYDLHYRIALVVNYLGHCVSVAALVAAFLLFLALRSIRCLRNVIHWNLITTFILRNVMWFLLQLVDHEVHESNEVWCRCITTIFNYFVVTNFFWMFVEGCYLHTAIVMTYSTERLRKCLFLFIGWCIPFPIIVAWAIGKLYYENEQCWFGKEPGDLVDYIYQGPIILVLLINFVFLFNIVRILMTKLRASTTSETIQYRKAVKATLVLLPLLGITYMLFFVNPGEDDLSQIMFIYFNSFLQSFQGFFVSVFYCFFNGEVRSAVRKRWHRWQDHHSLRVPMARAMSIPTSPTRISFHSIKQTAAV
T3 sequence (P24387 whole entry): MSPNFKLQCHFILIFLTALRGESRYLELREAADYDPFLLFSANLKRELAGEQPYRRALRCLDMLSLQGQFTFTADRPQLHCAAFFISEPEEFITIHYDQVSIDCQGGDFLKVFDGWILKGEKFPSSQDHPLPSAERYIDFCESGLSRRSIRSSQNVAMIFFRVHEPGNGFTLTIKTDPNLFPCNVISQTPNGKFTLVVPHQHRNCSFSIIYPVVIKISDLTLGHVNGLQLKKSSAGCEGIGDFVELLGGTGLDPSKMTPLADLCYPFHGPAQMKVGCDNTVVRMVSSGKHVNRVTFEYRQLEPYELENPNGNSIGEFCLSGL
The assay is described as follows: activators of CRF receptor 2 with binding protein – uHTS hits, confirmation (AID 602473). The class given is functional. To be noted: read-out: EC50_Mean.

For a further assay, the target named is Cytochrome P450 2C19 (Homo sapiens, UniProt P33261). As to the kind of experiment: Cytochrome panel assay with activity outcomes. Panel member name: p450-cyp2c19 Compounds with AC50 equal or less than 10 uM are considered active. The class given is functional. To be noted: read-out: AC50.
Sequence of Cytochrome P450 2C19 (P33261 whole entry): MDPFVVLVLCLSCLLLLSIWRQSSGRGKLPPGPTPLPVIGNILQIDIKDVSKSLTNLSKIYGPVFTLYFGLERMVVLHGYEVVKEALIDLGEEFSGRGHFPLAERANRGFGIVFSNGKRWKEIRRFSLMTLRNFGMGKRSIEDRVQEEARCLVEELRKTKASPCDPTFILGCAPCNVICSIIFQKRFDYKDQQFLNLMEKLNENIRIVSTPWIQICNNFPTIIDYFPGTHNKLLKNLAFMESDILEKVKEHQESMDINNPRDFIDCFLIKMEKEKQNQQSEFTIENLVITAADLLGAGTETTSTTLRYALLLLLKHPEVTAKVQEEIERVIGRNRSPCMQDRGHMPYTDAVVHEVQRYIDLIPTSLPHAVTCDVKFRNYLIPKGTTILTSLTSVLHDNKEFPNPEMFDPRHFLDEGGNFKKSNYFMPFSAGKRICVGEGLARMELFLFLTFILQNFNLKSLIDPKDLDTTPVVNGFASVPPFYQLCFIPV

Calls of active or inactive are those of the source.

Sequence of Cytochrome P450 2C9 (P11712 whole entry): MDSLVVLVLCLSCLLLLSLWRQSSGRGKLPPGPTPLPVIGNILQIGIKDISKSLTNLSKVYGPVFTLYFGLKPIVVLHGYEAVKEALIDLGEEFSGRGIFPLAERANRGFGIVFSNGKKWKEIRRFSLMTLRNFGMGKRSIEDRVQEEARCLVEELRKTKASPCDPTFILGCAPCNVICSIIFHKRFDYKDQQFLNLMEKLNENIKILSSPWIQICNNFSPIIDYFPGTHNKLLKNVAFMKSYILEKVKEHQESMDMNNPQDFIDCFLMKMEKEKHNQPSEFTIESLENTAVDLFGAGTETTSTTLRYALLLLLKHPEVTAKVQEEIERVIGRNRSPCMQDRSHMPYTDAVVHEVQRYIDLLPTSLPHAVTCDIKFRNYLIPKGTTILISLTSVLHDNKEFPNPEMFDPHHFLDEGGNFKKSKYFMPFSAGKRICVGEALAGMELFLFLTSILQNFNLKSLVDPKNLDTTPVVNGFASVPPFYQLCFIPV

Consider `O=C(NCCc1ccccc1)C1=COCCO1`, for which the EC50 in [1] is 0.762 µM (active); in the assay with H4, > 120 µM (not active).
Turning to `O=C(Nc1nnc(C2=COCCO2)o1)c1cccc(F)c1`, the EC50 on Streptokinase A is > 150 µM (not active); in assay [2] it was 1.83 µM (active); in the assay with Streptococcus, 19.6 µM (active).
For the molecule `Oc1ccc(N2CCN(C(c3cccs3)c3nnnn3CCc3ccccc3)CC2)cc1` (stereo unspecified), in assay [3], the IC50 is 47.3 µM (active).
Take `COc1ccc(CCN2CC(C(=O)NCCc3ccccn3)CCC2=O)cc1` (stereo unspecified): the EC50 (at Streptokinase A; in assay [2]; in the assay on Streptococcus) was > 150 µM (not active) in each case.
As to `COc1ccc(N2CCN(c3ncccc3C#N)CC2)cc1`, the IC50 in [3] is 157 µM (active).
Take `CCC[C@@H]1C[C@@]1(CCC)[C@@H](NP(=O)(c1ccccc1)c1ccccc1)c1ccc(C(=O)OC)cc1`: the EC50 on Streptokinase A is > 150 µM (not active); in assay [2] it was 5.5 µM (active); in the assay on Streptococcus, 6.87 µM (active).
The matching figures for `Nc1nc(Nc2ccc(Cl)cc2)nc(NCc2ccco2)c1[N+](=O)[O-]`: > 150 µM (not active), 7.12 µM (active) and 26.4 µM (inconclusive).
For the molecule `COC(=O)[C@@]1(Cc2ccc(OC)cc2)[C@H]2c3cc(C(=O)N4CCCC4)n(Cc4cc(C)n(C)n4)c3C[C@H]2CN1C(=O)c1ccccc1`, the AC50 at Cytochrome P450 2C9 is 12.6 µM (inconclusive).
With `Cc1ccc(-n2ncc(Cl)c2C(=O)NC2CC2)cc1`, the EC50 in assay [1] is 0.26 µM (active).
Consider `O=C(c1cc(-c2ccccc2)nc2ccccc12)N1CCN(c2ccccc2O)CC1`, for which the EC50 on Streptokinase A is 61.5 µM (active); in assay [2] it was 23.8 µM (active); in the assay on Streptococcus, 61.7 µM (active).
The matching figures for `CCn1ccnc1CN1CCc2c([nH]c3ccccc23)C1C1CCCCC1` (stereo unspecified): 42.1 µM (active), 5.53 µM (active) and 29.3 µM (active).
With `CN1/C(=C\C=C(/C#N)C(=O)Nc2ccc(Cl)cc2)C(C)(C)c2ccccc21`, in assay [4], the EC50 was 6.43 µM (active).
Consider `Cc1ccc(C(=O)NC(=S)NNC(=O)COc2ccccc2C)cc1`, for which the EC50 was 10.6 µM (active) in assay [4], 0.138 µM (active) in assay [2] and 0.555 µM (active) in the assay on Streptococcus.
On to `CCCn1nc2cc(C(=O)NCc3ccc4c(c3)OCO4)ccc2c1OCC`, for which the AC50 on Cytochrome P450 2C19 is 14.1 µM (inconclusive); on Cytochrome P450 2C9 it was 10 µM (inconclusive).
As to `COc1ccc(C(=O)N2CCN(CCCc3ccccc3)CC2)cc1OC`, the IC50 in assay [3] is 123 µM (active).
Take `Cc1cc(Oc2ccc(-c3ccccc3)cc2)n2ncnc2n1`: the IC50 in assay [3] was 22.7 µM (active).
`COc1ccc(N2C(=O)/C(=C\NNS(=O)(=O)c3cc(C)ccc3C)c3ccccc3C2=O)cc1OC`: the EC50 in [4] was 15.5 µM (active).
As for `CCc1c(O)n(-c2ccccc2)c(SCC(=O)NC(C)(C)C)nc1=O`, the half-maximal activity concentration (AC50) on Cytochrome P450 2C19 is 35.5 µM (inconclusive); on Cytochrome P450 2C9 it was 20 µM (inconclusive).
As to `CCC(CC)C(=O)Nc1cccc(C(=O)Nc2ccc(OC)cc2[N+](=O)[O-])c1`, the AC50 was 0.316 µM (inconclusive) on Cytochrome P450 2C19 and 0.891 µM (inconclusive) at Cytochrome P450 2C9.
As to `CCN(CC)c1ccc(NC(=O)c2c(C)noc2C)cc1`, the EC50 (at Streptokinase A; in assay [2]; with Streptococcus) was > 150 µM (not active) throughout.
Consider `Nc1ccc(-c2nc3nc(N)nc(N)c3nc2-c2ccc(N)cc2)cc1`, for which the EC50 on Streptokinase A is > 150 µM (not active); in assay [2], 2.94 µM (active); with Streptococcus, > 150 µM (not active).
For `CCN(CC)c1ccc(C2Nc3cccc4cccc(c34)N2)cc1`, the figures for the EC50 (in assay [1]; in the assay with H4) were 16.8 µM (active) and 27.2 µM (active), respectively.
In the case of `CCOC(=O)c1cn2nc(Oc3ccccc3)ccc2n1`, the EC50 is 7.96 µM (active) in [1] and > 120 µM (not active) with H4.
As to `Cn1nc(-c2ccccc2)c(C(=O)Nc2ccc(Cl)cc2)c1Cl`, the results for the half-maximal activity concentration (AC50) on Cytochrome P450 2C19 and on Cytochrome P450 2C9 were 2 µM (inconclusive) and 0.141 µM (inconclusive), respectively.
Consider `CCCC(=O)Nc1sc2c(c1C#N)CCCCC2`, for which the values for the EC50 (in [1]; in the assay on H4) were 0.102 µM (active) and > 120 µM (not active), respectively.
As for `CN(C)c1ccc(/C=C/c2c([N+](=O)[O-])c(=O)n(C)c(=O)n2C)cc1`, the EC50 at Streptokinase A is > 150 µM (not active); in [2], 5.75 µM (active); in the assay on Streptococcus it was 18.3 µM (active).
As for `Cc1ccc(NC(=O)CN2C(=O)N/C(=C/c3ccc(C)o3)C2=O)cc1`, at Cytochrome P450 2C9, the AC50 is 14.1 µM (inconclusive).
The same measure, in the same setting: the figure for `Cc1cc(C)nc(SCc2nnc(SCC(N)=O)n2Cc2ccco2)n1` is 3.55 µM (inconclusive).
On to `COc1cccc(CN2CCN(C(=O)c3ccco3)CC2)c1OC`, for which, in assay [3], the IC50 is 163 µM (active).
On the same count and under the same terms, the value for `Oc1ccc(/C=N/NC(=S)N2CCOCC2)cc1` was 63.7 µM (active).
For `CSC1=NN(c2ccccc2)CN(c2ccccc2)N1C`, the IC50 in assay [3] is 75.6 µM (active).
On the same count and under the same terms, the value for `O=c1c(-c2ccccc2Cl)c[nH]n1-c1ccccc1` was 97.4 µM (active).
Consider `O=C(N/N=C/c1ccc(OCc2ccccc2)cc1)c1ccncc1`, for which the EC50 in assay [1] is 17.7 µM (active); in the assay on H4, 19.3 µM (active).
The matching figures for `CSc1ccc(/C=N/n2c(C)cc(C)cc2=O)cc1`: 18.2 µM (active) and 7.91 µM (active).
With `CC(/C=N/n1c(S)nnc1-c1ccco1)=C\c1ccccc1`, in assay [3], the IC50 was 108 µM (active).
Consider `C[C@H](N)C(=O)OC(C)(C)Cc1ccc(Cl)cc1` [(S)-ALAPROCLATE], for which the AC50 at Cytochrome P450 2C9 is 39.8 µM (inconclusive).
